Laboratory results reported in ChEMBL document CHEMBL3600286, “Initial optimization and series evolution of diaminopyrimidine inhibitors of interleukin-1 receptor associated kinase 4” (Bioorg Med Chem Lett, 2015).
Converted amounts (≈) assume the structure as drawn. The source made the active and inactive calls. The rule behind the calls is not given here.

Key:
[1] = target: T1, Interleukin-1 receptor-associated kinase 4 (Homo sapiens, UniProt Q9NWZ3); test: Inhibition of human IRAK4 (unknown origin)
T1 sequence (Q9NWZ3 whole entry): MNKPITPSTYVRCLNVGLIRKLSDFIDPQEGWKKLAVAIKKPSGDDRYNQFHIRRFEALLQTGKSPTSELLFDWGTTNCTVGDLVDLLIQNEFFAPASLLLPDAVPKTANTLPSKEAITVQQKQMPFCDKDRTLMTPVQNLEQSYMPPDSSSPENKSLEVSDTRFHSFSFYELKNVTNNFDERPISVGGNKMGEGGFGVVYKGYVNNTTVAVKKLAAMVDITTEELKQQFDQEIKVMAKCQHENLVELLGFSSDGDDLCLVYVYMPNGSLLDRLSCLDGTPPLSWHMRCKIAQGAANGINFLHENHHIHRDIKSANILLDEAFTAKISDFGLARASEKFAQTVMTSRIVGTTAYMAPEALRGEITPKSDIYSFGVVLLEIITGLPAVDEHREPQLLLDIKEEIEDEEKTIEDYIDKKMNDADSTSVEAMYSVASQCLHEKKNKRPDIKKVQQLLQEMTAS

[2] = target: T1, Interleukin-1 receptor-associated kinase 4; test: Inhibition of IRAK4-dependent TLR4 signaling in human THP1-XBlue cells containing NF-kappaB-inducible SEAP reporter gene assessed as inhibition of LPS-EK-induced TLR4 activation incubated at 37 degC for 1 hr by spectrophotometry; format: cell-based, THP-1
[3] = target: T2, Interleukin-1 receptor-associated kinase 4 (Homo sapiens) (UniProt Q9NWZ3); test: Potency index, ratio of IC50 for inhibition of IRAK4-dependent TLR4 signaling in human THP1-XBlue cells containing NF-kappaB-inducible SEAP reporter gene to IC50 for human IRAK4 (unknown origin); format: cell-based
T2 sequence (whole entry): T1 sequence (Q9NWZ3 whole entry)

[4] = target: Cytochrome P450 3A4 (Homo sapiens, UniProt P08684); test: Inhibition of CYP3A4 (unknown origin); format: ADME
[5] = Apparent permeability in pig LLC-PK1 cells; format: ADME, cell-based, Sus scrofa
[6] = target: Cytochrome P450 2C9 (Homo sapiens, UniProt P11712); test: Inhibition of CYP2C9 (unknown origin); format: ADME
[7] = target: T3, Tumor necrosis factor receptor superfamily member 1A (Homo sapiens, UniProt P19438); test: Inhibition of TNFR in human THP1-XBlue cells containing NF-kappaB-inducible SEAP reporter gene assessed as inhibition of TNFalpha-induced TNFR activation incubated at 37 degC for 1 hr by spectrophotometry; format: cell-based, THP-1
T3 sequence (P19438 whole entry): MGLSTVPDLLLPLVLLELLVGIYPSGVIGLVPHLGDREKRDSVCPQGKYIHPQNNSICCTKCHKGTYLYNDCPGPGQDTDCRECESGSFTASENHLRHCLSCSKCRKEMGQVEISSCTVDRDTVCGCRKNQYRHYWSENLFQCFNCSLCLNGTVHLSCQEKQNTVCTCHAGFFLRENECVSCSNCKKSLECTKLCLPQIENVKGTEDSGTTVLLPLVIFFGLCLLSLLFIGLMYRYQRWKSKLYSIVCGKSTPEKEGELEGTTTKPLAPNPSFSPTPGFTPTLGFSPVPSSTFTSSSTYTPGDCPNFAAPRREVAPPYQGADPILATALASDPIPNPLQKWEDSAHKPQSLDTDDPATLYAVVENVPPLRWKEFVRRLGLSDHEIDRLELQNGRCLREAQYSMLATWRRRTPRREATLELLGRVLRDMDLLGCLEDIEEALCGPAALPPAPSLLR

[8] = target: Cytochrome P450 2D6 (Homo sapiens, UniProt P10635); test: Inhibition of CYP2D6 (unknown origin); format: ADME
[9] = Solubility in pH 7 solution; format: physicochemical
[10] = target: Receptor-type tyrosine-protein kinase FLT3 (Homo sapiens) (UniProt P36888); test: Inhibition of FLT3 (unknown origin)
[11] = target: BDNF/NT-3 growth factors receptor (Homo sapiens) (UniProt Q16620); test: Inhibition of TRKB (unknown origin)
[12] = target: Misshapen-like kinase 1 (Homo sapiens) (UniProt Q8N4C8); test: Inhibition of MINK1 (unknown origin)
[13] = target: Leucine-rich repeat serine/threonine-protein kinase 2 (Homo sapiens) (UniProt Q5S007); test: Inhibition of LRRK2 (unknown origin)
[14] = target: Tyrosine-protein kinase Lck (Homo sapiens) (UniProt P06239); test: Inhibition of LCK (unknown origin)
[15] = target: Dual specificity protein kinase CLK2 (Homo sapiens) (UniProt P49760); test: Inhibition of CLK2 (unknown origin)
[16] = target: Proto-oncogene tyrosine-protein kinase receptor Ret (Homo sapiens) (UniProt P07949); test: Inhibition of RET (unknown origin)
[17] = target: Platelet-derived growth factor receptor alpha (Homo sapiens) (UniProt P16234); test: Inhibition of PDGFRA (unknown origin)

Cytochrome P450 2C9, sequence (P11712 whole entry): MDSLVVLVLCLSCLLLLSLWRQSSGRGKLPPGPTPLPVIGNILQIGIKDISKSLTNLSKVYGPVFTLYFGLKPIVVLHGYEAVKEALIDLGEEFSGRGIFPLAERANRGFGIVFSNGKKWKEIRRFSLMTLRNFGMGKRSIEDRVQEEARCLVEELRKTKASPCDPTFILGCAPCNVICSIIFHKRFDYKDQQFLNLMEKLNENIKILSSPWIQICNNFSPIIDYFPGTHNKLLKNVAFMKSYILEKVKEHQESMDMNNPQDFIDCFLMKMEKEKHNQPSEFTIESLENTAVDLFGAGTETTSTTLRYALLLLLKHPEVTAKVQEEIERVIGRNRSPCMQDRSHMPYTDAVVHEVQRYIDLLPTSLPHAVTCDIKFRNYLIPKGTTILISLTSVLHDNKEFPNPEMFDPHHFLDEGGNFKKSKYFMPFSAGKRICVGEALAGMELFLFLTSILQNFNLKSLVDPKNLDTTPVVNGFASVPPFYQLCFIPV
Cytochrome P450 3A4, sequence (P08684 whole entry): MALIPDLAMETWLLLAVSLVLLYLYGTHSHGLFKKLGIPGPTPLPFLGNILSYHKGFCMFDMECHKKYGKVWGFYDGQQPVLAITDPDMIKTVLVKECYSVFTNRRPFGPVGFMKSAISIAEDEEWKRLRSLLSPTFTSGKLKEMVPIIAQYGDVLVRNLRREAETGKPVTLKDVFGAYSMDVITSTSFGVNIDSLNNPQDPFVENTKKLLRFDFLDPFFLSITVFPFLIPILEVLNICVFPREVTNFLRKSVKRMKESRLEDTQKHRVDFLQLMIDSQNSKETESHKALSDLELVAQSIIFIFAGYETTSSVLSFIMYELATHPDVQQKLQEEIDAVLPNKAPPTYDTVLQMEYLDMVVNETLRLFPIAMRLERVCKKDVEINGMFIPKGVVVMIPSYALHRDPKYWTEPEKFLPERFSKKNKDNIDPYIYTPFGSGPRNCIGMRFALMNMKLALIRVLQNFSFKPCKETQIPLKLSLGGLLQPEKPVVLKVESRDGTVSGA
Cytochrome P450 2D6, sequence (P10635 whole entry): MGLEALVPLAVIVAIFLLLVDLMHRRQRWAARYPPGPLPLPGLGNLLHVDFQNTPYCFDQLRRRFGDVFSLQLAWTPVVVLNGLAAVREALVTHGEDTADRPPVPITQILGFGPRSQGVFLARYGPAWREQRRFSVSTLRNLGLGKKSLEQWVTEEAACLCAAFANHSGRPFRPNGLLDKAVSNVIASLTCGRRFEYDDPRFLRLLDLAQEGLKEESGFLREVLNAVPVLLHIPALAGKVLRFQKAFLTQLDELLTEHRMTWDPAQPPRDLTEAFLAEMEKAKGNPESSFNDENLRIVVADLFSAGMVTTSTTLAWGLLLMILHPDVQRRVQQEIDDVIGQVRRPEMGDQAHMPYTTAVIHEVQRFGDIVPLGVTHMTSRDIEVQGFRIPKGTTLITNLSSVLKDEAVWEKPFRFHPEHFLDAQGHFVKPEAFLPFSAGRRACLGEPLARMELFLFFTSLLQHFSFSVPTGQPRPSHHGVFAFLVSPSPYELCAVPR
Receptor-type tyrosine-protein kinase FLT3 (Homo sapiens), sequence (P36888 whole entry): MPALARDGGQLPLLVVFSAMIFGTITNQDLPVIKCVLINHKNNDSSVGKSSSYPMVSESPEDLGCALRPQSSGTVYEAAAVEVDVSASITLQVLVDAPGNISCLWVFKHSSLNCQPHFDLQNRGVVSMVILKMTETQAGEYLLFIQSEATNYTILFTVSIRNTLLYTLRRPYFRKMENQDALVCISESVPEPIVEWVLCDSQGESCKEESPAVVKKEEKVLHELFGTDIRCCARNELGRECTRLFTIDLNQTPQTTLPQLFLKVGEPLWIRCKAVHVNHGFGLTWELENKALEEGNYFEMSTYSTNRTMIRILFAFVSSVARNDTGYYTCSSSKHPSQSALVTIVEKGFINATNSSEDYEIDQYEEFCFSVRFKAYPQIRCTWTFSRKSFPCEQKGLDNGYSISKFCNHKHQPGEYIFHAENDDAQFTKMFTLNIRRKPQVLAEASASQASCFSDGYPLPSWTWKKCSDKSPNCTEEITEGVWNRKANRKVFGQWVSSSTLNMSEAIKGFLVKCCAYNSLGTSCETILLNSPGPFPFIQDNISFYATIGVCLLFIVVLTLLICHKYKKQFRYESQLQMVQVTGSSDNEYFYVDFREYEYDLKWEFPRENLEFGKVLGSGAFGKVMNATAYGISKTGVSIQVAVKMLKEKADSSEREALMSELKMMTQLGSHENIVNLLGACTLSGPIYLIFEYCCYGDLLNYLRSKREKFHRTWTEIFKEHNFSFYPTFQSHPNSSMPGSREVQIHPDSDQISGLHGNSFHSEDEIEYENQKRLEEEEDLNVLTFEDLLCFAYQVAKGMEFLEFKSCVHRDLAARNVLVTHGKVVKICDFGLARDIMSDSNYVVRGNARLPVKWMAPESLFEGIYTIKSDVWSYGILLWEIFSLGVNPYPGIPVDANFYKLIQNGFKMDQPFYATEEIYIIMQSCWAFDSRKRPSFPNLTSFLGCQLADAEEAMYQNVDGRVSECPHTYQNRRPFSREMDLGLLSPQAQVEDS
Misshapen-like kinase 1 (Homo sapiens), sequence (Q8N4C8 whole entry, looked up): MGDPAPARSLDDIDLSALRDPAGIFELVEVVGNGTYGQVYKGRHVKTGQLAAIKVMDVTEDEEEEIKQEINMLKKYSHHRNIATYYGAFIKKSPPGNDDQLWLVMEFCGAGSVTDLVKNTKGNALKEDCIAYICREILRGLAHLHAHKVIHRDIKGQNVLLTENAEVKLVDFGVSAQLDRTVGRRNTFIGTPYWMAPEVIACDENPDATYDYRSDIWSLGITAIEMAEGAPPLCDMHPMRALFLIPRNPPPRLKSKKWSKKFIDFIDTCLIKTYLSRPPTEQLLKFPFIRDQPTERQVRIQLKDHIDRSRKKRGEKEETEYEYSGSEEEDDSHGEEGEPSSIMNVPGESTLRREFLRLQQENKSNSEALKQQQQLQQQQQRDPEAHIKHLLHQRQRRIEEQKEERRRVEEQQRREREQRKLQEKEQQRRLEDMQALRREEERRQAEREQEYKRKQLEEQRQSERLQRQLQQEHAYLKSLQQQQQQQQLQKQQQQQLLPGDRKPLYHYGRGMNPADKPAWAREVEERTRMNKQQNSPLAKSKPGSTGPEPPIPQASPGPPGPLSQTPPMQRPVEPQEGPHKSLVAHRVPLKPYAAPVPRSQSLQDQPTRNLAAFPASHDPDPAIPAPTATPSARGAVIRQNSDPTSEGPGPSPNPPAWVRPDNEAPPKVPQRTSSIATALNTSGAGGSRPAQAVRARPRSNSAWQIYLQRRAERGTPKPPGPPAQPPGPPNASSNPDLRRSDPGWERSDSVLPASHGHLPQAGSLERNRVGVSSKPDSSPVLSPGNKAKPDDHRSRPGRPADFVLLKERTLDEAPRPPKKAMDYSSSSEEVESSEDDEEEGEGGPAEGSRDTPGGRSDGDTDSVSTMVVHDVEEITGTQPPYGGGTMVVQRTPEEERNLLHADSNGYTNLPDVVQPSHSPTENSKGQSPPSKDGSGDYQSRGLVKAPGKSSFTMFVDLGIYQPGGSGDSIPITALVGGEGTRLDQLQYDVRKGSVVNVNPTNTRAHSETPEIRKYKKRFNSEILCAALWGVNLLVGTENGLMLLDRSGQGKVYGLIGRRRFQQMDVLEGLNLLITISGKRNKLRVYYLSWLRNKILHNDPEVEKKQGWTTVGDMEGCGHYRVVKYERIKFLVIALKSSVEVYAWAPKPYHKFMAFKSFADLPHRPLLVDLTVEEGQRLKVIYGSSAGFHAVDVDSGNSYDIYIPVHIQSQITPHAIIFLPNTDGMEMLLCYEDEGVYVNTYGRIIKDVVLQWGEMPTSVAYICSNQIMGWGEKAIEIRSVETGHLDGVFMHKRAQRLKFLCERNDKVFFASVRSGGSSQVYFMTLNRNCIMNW
Dual specificity protein kinase CLK2 (Homo sapiens), sequence (P49760 whole entry, looked up): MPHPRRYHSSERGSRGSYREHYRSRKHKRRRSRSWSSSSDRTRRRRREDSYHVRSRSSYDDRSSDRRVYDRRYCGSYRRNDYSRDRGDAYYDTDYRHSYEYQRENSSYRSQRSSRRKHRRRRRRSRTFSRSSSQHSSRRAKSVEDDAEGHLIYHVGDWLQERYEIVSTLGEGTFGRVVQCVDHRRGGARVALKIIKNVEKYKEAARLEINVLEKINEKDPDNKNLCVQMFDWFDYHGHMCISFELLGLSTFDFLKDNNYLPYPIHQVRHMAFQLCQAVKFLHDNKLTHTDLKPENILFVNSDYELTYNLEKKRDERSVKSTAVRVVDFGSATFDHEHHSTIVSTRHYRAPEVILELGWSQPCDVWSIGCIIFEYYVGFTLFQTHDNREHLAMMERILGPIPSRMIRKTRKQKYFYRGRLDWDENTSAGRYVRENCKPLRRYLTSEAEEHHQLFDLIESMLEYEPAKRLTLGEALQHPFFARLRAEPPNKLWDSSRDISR
Tyrosine-protein kinase Lck (Homo sapiens), sequence (P06239 2-509 limits assumed): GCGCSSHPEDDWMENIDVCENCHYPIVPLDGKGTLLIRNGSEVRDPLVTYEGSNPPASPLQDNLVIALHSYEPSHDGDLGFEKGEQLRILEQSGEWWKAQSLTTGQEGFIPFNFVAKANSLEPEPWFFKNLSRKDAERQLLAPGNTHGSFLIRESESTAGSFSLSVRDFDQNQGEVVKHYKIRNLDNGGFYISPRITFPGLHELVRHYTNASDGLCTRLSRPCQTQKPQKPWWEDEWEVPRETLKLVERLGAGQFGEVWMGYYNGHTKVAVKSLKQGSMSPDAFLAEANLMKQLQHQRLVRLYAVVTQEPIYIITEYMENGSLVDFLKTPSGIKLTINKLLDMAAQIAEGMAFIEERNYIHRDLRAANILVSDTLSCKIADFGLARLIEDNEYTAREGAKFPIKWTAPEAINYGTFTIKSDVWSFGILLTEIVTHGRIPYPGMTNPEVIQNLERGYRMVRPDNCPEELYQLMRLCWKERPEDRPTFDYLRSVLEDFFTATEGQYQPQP

OC[C@H]1C[C@@H](Nc2nc(Nc3cccnc3)ncc2-c2nc3ccncc3s2)[C@H](O)[C@@H]1O showed an IC50 [1] of 18 nM.
COc1cc(Nc2ncc(-c3ccc4ccccc4n3)c(N[C@@H]3C[C@H](CO)[C@@H](O)[C@H]3O)n2)ccn1 gave an IC50 [2] of 25 nM, a Ratio IC50 [3] of 10 and an IC50 [4] greater than 50000 nM. The Papp [5] was greater than 15 ×10⁻⁶ cm/s, the IC50 [6] was greater than 50000 nM and the IC50 [7] was greater than 31000 nM. The IC50 [8] was greater than 50000 nM and the solubility [9] was 22 µM (≈ 10.4 µg/mL).
Cc1cc(Nc2ncc(-c3nc(-c4ccccc4)cs3)c(N[C@@H]3C[C@H](CO)[C@@H](O)[C@H]3O)n2)cc(C)n1 gave an IC50 [2] of 87 nM, a Ratio IC50 [3] of 10 and an IC50 [1] of 4 nM. For the same compound, the inhibition [10] was “Active”, the IC50 [4] was greater than 50000 nM and the inhibition [11] was “Active”. It also gave a Papp [5] greater than 15 ×10⁻⁶ cm/s, an IC50 [6] greater than 50000 nM and an IC50 [7] greater than 31000 nM. The IC50 [8] was greater than 50000 nM, the inhibition [12] was “Active” and the solubility [9] was 17 µM (≈ 8.58 µg/mL). The inhibition [13] was “Active”.
Compound Cc1cc(Nc2ncc(-c3cncs3)c(N[C@@H]3C[C@H](CO)[C@@H](O)[C@H]3O)n2)cc(C)n1 has an IC50 [1] of 2110 nM.
Work on CC(C)Oc1cc(Nc2ncc(-c3ccc4ccccc4n3)c(N[C@@H]3C[C@H](CO)[C@@H](O)[C@H]3O)n2)ccn1 yielded an IC50 [2] of 216 nM, a Ratio IC50 [3] of 10 and an IC50 [4] greater than 50000 nM. The Papp [5] was greater than 15 ×10⁻⁶ cm/s, the IC50 [6] was greater than 50000 nM and the IC50 [7] was greater than 31000 nM. For the same compound, the IC50 [8] was greater than 50000 nM and the solubility [9] was 23 µM (≈ 11.6 µg/mL).
With COc1cc(Nc2ncc(-n3cccn3)c(N[C@@H]3C[C@H](CO)[C@@H](O)[C@H]3O)n2)ccn1 the IC50 [1] was 6010 nM.
For OC[C@H]1C[C@@H](Nc2nc(Nc3cccnc3)ncc2-c2nc3cnccc3s2)[C@H](O)[C@@H]1O, the IC50 [1] was 11 nM.
Cc1cc(Nc2ncc(-c3ccc4ccccc4n3)c(N[C@@H]3C[C@H](CO)[C@@H](O)[C@H]3O)n2)cc(C)n1 gave an IC50 [2] of 55 nM, a Ratio IC50 [3] of 10 and an IC50 [1] of 0.74 nM. The inhibition [10] was “Active”, the IC50 [4] was greater than 50000 nM and the inhibition [11] was “Active”. It also gave a Papp [5] greater than 15 ×10⁻⁶ cm/s, an IC50 [6] greater than 50000 nM and an IC50 [7] greater than 31000 nM. The IC50 [8] was greater than 50000 nM, the inhibition [14] was “Active” and the inhibition [12] was “Active”. The solubility [9] was 72 µM (≈ 34 µg/mL), the inhibition [13] was “Active” and the inhibition [15] was “Active”.
OC[C@H]1C[C@@H](Nc2nc(Nc3ccncc3)ncc2-c2nccs2)[C@H](O)[C@@H]1O showed an IC50 [1] greater than 20000 nM.
In the case of OC[C@H]1C[C@@H](Nc2nc(Nc3cncnc3)ncc2-c2nc3cnccc3s2)[C@H](O)[C@@H]1O, the IC50 [1] is reported as 12 nM.
Cc1cc(Nc2ncc(-c3cscn3)c(N[C@@H]3C[C@H](CO)[C@@H](O)[C@H]3O)n2)cc(C)n1 showed an IC50 [1] of 852 nM.
Cc1cc(Nc2cc(N[C@@H]3C[C@H](CO)[C@@H](O)[C@H]3O)c(-c3nc4ccccc4s3)cn2)cc(C)n1 gave an IC50 [2] of 3450 nM, a Ratio IC50 [3] greater than 240 and an IC50 [1] of 14 nM. The inhibition [10] was “Active”, the IC50 [4] was greater than 50000 nM and the Papp [5] was 2 ×10⁻⁶ cm/s. The IC50 [6] was greater than 50000 nM, the IC50 [7] was greater than 31000 nM and the IC50 [8] was greater than 50000 nM. For the same compound, the solubility [9] was less than 4 µM, the inhibition [16] was “Active” and the inhibition [17] was “Active”. The inhibition [15] was “Active”.
Work on Cc1cc(Nc2ncc(-n3cccn3)c(N[C@@H]3C[C@H](CO)[C@@H](O)[C@H]3O)n2)cc(C)n1 yielded an IC50 [1] of 932 nM.
Compound COc1cc(Nc2ncc(-c3nc(-c4ccccc4)cs3)c(N[C@@H]3C[C@H](CO)[C@@H](O)[C@H]3O)n2)ccn1 has an IC50 [1] of 89 nM.
OC[C@H]1C[C@@H](Nc2nc(Nc3ccnc(OC4CC4)c3)ncc2-c2ccc3ccccc3n2)[C@H](O)[C@@H]1O showed an IC50 [2] of 341 nM, a Ratio IC50 [3] of 10 and an IC50 [1] of 44 nM. For the same compound, the IC50 [4] was greater than 50000 nM, the Papp [5] was greater than 15 ×10⁻⁶ cm/s and the IC50 [6] was greater than 50000 nM. The IC50 [7] was greater than 31000 nM, the IC50 [8] was greater than 50000 nM and the solubility [9] was 31 µM (≈ 15.5 µg/mL).
Compound Cc1cc(Nc2ncc(-c3nc4ccncc4s3)c(N[C@@H]3C[C@H](CO)[C@@H](O)[C@H]3O)n2)ccn1 has an IC50 [1] of 12 nM.
Work on Cc1cc(Nc2ncc(-c3nc(-c4ccccc4)cs3)c(N[C@@H]3C[C@H](CO)[C@@H](O)[C@H]3O)n2)ccn1 yielded an IC50 [2] of 94 nM, a Ratio IC50 [3] of 10 and an IC50 [1] of 11 nM. For the same compound, the IC50 [4] was greater than 50000 nM, the Papp [5] was greater than 15 ×10⁻⁶ cm/s and the IC50 [6] was greater than 50000 nM. For the same compound, the IC50 [7] was greater than 31000 nM, the IC50 [8] was greater than 50000 nM and the solubility [9] was 19 µM (≈ 9.32 µg/mL).
Compound OC[C@H]1C[C@@H](Nc2nc(NC3CC3)ncc2-c2nc3cnccc3s2)[C@H](O)[C@@H]1O has an IC50 [1] of 647 nM.
